Data on 28 compounds can be found in patent publication US5753483A (priority 1995, dated 1998).

In experiment [1] the target is T1, UDP-GlcNAc pyrophosphorylase (Sus scrofa, UniProt F1S210).
T1 construct: both 64 and 55 kDa bands photolabelled
Kind of experiment: Photoaffinity labeling of purified pyrophosphorylase and its inhibition (FIG. 5). The experiment is classed as binding, pig. The following applies: for labeling of enzyme subunits by probe: UV light, SDS-PAGE. The protocol: Enzyme was incubated with radioactive probe in the presence or absence of various inhibitors, and some of the incubations were exposed to UV light to activate the probe. Each incubation was treated with trichloroacetic acid to precipitate the protein, and the pellet was resuspended in SDS and subjected to SDS-PAGE. Radioactive proteins were detected by exposure to film. […]

Experiment [2] addresses T2, Pyrophosphorylase (Sus scrofa, UniProt F1S210).
T2 construct: 64 and 55 kDa bands; native about 125 kDa
Kind of experiment: Putative inhibitors of pyrophosphorylase. The class given is biochemical, pig. The conditions noted are these: for inhibition at 100 µM: 0.1 mM; for inhibition at 1000 µM: 1.0 mM. The protocol: A variety of other inhibitors were tested, including various sulfhydryl reagents and metal chelators.

The target in experiment [3] is T2, Pyrophosphorylase. Kind of experiment: Specificity of pyrophosphorylase (reverse direction). The class given is biochemical, pig. The conditions noted are these: 5 mM, PP = 1 mM; for Relative Activity: UDP-GalNAc = 100. The method, then: (§1) When measured in the reverse direction, either a direct assay or an indirect assay could be used. […] The incubation mixtures contained the following components in a final volume of 50 μl: 5 mM sodium pyrophosphate, 250 uM UDP-[^3 H]GlcNAc (2.2 Ci/mmol), 100 mM Tris HCl buffer, pH 8.5, 2 mM MgCl2, and various amounts of enzyme at the different stages of purification. […] The suspension was vortexed vigorously for 2 minutes, and was then centrifuged in a microfuge. The supernatant liquid was removed and saved, and the charcoal was washed with 1 ml of water. The supernatant liquid from this wash was combined with the first supernatant liquid, and an aliquot was removed and counted, as a measure of the formation of GlcNAc-1-P.
(§2) For the indirect assay, a modification of the spectrophotometric method of Munch-Petersen, (1956) Acta Chim. Scand. […] The assay mixtures contained 50 mM Tris-HCl buffer, pH 7.5, 1 mM MgCl2, 0.5 mM ADP, 1 mM glucose, 0.5 mM NADP, 1 mM inorganic pyrophosphate, 2 mM UDP-HexNAc and 2.5 units each of nucleoside diphosphate kinase, hexokinase and glucose-6-P dehydrogenase.
(§3) The substrate specificity of the purified enzyme was examined in both the forward and the reverse direction.

Experiment [4] addresses T2, Pyrophosphorylase. Kind of experiment: Specificity of pyrophosphorylase (forward direction). The class given is biochemical, pig. The following applies: for Activity / Relative Activity: sugar phosphate 5 mM, UT = 5 mM; for Relative Activity: GalNAc-1-P = 100. The protocol:
(§4) After an incubation of 10 minutes at 37° C., the reaction was terminated by heating the tubes in a boiling water bath for 30 seconds. The amount of product could either be determined by measuring the amount of radioactivity that bound to DE-52 (HCO3 -) after treatment of the reaction mixtures with alkaline phosphatase, or the product could be detected by TLC.
as §3

Experiment [5] has as its system UDP-GlcNAc pyrophosphorylase. Briefly: Kinetic constants, forward direction (sugar-1-P + UTP). The experiment is classed as biochemical, pig. The protocol:
as §4

Experiment [6] concerns the target T2, Pyrophosphorylase. Briefly: Effects of metal ions on pyrophosphorylase activity. The class given is biochemical, pig. The conditions noted are these: metal ion 1 mM. The text has this:
Other ions such as Fe^+++, Ca^++ and Hg^++ were ineffective.

The test system of experiment [7] is UDP-GlcNAc pyrophosphorylase from brain. The conditions noted are these: cited from earlier work.
For experiment [8], the system named is UDP-GlcNAc pyrophosphorylase. The following applies: reverse direction. The protocol: as §1, §2
Experiment [9] concerns UDP-GlcNAc pyrophosphorylase. The following applies: [^3 H]UTP + GlcNAc-1-P, 2 hours.
Method: The reaction products, formed in either the forward direction (i.e., uridine diphosphate sugars), or in the reverse direction (i.e., UTP and sugar-i-P's), were isolated by chromatography on a 1×20
column of DEAE-cellulose (HCO3 -), equilibrated in 10 mM NH4 HCO3. After application of the sample, the column was washed with the same solution and the retained products were eluted with 200 ml of a linear 10 to 300 mM gradient of NH4 HCO3. Fractions were analyzed for nucleotides by measuring the absorption at 260 nm, for radioactivity by scintillation counting, and for hexosamine by the Reissig test (J. Biol. Chem., 217, 959-966, 1955) or the or the Elson Morgan assay (Wheat, R. W. (1966) Meth. Enzymol. 8, 60-78). Peak fractions were pooled and concentrated on a rotary evaporator and NH4 H CO3 was removed by evaporation in the presence of triethylamine. The triethylamine was in turn removed by evaporation in the presence of methanol.
The reaction products were identified by chromatography, either directly, or following various treatments such as digestion with phosphodiesterase or alkaline phosphatase, or acid hydrolysis. Nucleotides were identified by TLC in the following systems: PEI plates developed in 0.2M and 0.4M solutions of LiCl; cellulose plates in ethanol: 1M ammonium acetate, pH 7.3 (7:3), or silica gel plates in ethanol: 1M ammonium acetate, pH 5.0 (7:3). N-acetyl-hexosamines were released from nucleotides by mild acid hydrolysis (0.01 N HCl, 100° C., 15 minutes) and identified by chromatography on borate-treated paper in n-butanol:pyridine:water (6:4:3) as described earlier by Cardini and Leloir, (1953) Arch. Biochem. Biophys., 45, 317-324.
After deproteinization, the aqueous phase was applied to a column of DE-52 and sugar phosphates and nucleoside diphosphate sugars were separated with a gradient of NH4 HCO3, as shown in FIG. 4. […] The peak was pooled and subjected to TLC in 3 different solvent systems as described above.
The characterization of these products was also based on the products produced by phosphosdiesterase, mild acid hydrolysis and other treatments.
The test system of the next experiment is sheep brain enzyme. The following applies: cited from earlier work.
The mark [10] stands for this setting: metal chelators, as long as sufficient Mn++ was added.
The mark [11] stands for this setting: at 1 mM UTP, read-out: apparant Km.
The mark [12] stands for this setting: at 1 mM inorganic pyrophosphate.

Entries after “also recorded” stand apart in the source; their conditions may differ. Where two headings read alike, the source gives them in different places.

T2 sequence (F1S210 1-505): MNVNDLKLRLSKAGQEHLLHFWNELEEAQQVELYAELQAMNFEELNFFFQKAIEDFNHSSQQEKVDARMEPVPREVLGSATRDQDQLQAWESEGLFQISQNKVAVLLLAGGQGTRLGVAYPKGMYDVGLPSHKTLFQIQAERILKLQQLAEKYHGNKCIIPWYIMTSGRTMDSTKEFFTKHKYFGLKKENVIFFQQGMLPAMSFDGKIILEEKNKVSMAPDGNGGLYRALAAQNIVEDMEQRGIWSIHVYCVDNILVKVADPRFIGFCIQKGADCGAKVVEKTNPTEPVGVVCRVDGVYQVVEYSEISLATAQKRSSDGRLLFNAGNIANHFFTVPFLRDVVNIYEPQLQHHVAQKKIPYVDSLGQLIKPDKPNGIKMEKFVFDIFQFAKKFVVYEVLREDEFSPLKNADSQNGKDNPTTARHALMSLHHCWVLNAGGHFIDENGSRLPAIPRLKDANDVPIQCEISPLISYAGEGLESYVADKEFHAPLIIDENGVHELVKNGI
T1 sequence (F1S210 1-505): as above

Turning to “5-azido-salicylic-[^125 I]-allylamine-UDP-GlcNAc [5-azido-ASA-UDP-GlcNAc]”, the “labeling of enzyme subunits by probe” value in experiment [1] is “both the 64 kDa and the 55 kDa subunits of the enzyme became labeled with the probe”; in experiment [1] (listed as [^125 I]-N3 -salicyclic acid-allylamine-UDP-GlcNAc) it was “Both subunits became labeled by this probe and labeling was saturable with increasing concentrations of probe”; in [1] (listed as azido-[^125 I]-salicyclic acid-allylamine-UDP-GlcNAc) it was “they both become labeled”. The “labeling of GlcNAc transferases by probe” value in the experiment on GlcNAc transferases was “does label the pyrophosphorylase and some GlcNAc transferases”.
`O[C@H](CS)[C@H](O)CS` (racemic) [Dithiothreitol]: at Pyrophosphorylase [2] (read-out: Inhibition), the inhibition – broadly, the relative decrease from the control value, in per cent – at 100 µM is 21% and the inhibition at 1000 µM amounted to 62%.
Consider `Nc1ncnc2c1ncn2[C@@H]1O[C@H](COP(=O)(O)OP(=O)(O)O[C@H]2O[C@H](CO)[C@@H](O)[C@H](O)[C@H]2O)[C@@H](O)[C@H]1O` [ADP-Glc], for which, on Pyrophosphorylase [3], the Activity was 0.6 nmol/min and the “Relative Activity” value is given as 3%.
Turning to `Nc1ncnc2c1ncn2[C@@H]1O[C@H](COP(=O)(O)OP(=O)(O)OP(=O)(O)O)[C@@H](O)[C@H]1O` [ATP], the inhibition of labeling entry in experiment [1] (nucleotides) is reported as “very little inhibition of labeling”.
In the case of `O=C(O)CN(CCN(CC(=O)O)CC(=O)O)CC(=O)O` [EDTA], on Pyrophosphorylase [2], testing at 100 µM gave an inhibition of 5% and testing at 1000 µM gave an inhibition of 13%. The “inhibition (in words)” value on Pyrophosphorylase [2] (setting [10]) was “did not inhibit”.
`O=C(O)CN(CCOCCOCCN(CC(=O)O)CC(=O)O)CC(=O)O` [EGTA]: at Pyrophosphorylase [2] (read-out: Inhibition), the inhibition at 100 µM stood at 8% and the inhibition at 1000 µM is 13%. The “inhibition (in words)” value against Pyrophosphorylase [2] (setting [10]) is recorded as “did not inhibit”.
As to `Nc1nc2c(ncn2[C@@H]2O[C@H](COP(=O)(O)OP(=O)(O)O[C@H]3O[C@H](CO)[C@@H](O)[C@H](O)[C@@H]3O)[C@@H](O)[C@H]2O)c(=O)[nH]1` [GDP-mannose], in experiment [1] (even at 1 mM), the inhibition of labeling entry was “None of these sugar nucleotides showed any inhibition of the labeling”.
Take `Nc1nc2c(ncn2[C@@H]2O[C@H](COP(=O)(O)OP(=O)(O)O)[C@@H](O)[C@H]2O)c(=O)[nH]1` [GDP]: the inhibition of labeling entry in experiment [1] (nucleotides) was “very little inhibition of labeling”.
Take `Nc1nc2c(ncn2[C@@H]2O[C@H](COP(=O)(O)OP(=O)(O)OP(=O)(O)O)[C@@H](O)[C@H]2O)c(=O)[nH]1` [GTP]: the inhibition of labeling result in experiment [1] (nucleotides) is listed as “very little inhibition of labeling”.
Turning to `O=P(O)(O)O[C@H]1O[C@H](CO)[C@H](O)[C@H](O)[C@H]1O` [Gal-1-P], on Pyrophosphorylase [4], the “substrate preference, forward direction” value is “may act as substrates but to a much lower degree”; the Activity was found to be 0.14 nmol/min; the “Relative Activity” value is reported as 3%.
For `N[C@H]1C(OP(=O)(O)O)O[C@H](CO)[C@H](O)[C@@H]1O` (stereo partly shown) [GalN-1-P], the Activity on Pyrophosphorylase [4] worked out at 0 nmol/min.
As for `CC(=O)N[C@H]1[C@@H](OP(=O)(O)O)O[C@H](CO)[C@H](O)[C@@H]1O` [GalNAc-1-P], the Vmax (in general, the rate approached at saturating substrate) in experiment [5] (at 1 mM UTP) is 7.1 nmol/min. Moreover, the Km – broadly, the substrate concentration at which the rate is half of its maximum – in [5] (setting [11]) was found to be 5500 µM. At Pyrophosphorylase [4], the “substrate preference, forward direction” value is recorded as “GalNAc-1-P over GlcNAc-1-P; also recorded: prefers GalNAc-1-P slightly over GlcNAc-1-P”; the Activity is 5.28 nmol/min; the “Relative Activity” value is 100%.
For `O=P(O)(O)O[C@H]1O[C@H](CO)[C@@H](O)[C@H](O)[C@H]1O` [Glc-1-P, glucose-1-P] the same measures were 1.7 nmol/min, 66600 µM, “may act as substrates but to a much lower degree”, 0.20 nmol/min and 4%.
For the compound `N[C@H]1[C@@H](OP(=O)(O)O)O[C@H](CO)[C@@H](O)[C@@H]1O` [GlcN-1-P], on Pyrophosphorylase [4], the Activity was determined as 0.10 nmol/min and the “Relative Activity” value stood at 2%.
As for `CC(=O)N[C@H]1[C@@H](OP(=O)(O)O)O[C@H](CO)[C@@H](O)[C@@H]1O` [GlcNAc-1-P], the Vmax in [5] (at 1 mM UTP) came to 3.1 nmol/min. Also, the Km in experiment [5] (setting [11]) turned out to be 2000 µM. Besides, at Pyrophosphorylase [4], the Activity worked out at 4.83 nmol/min and the “Relative Activity” value was determined as 91%.
On Pyrophosphorylase [2], `NC(=O)CI` [Iodoacetamide] yielded an inhibition at 1000 µM of 44%.
As for `[Mn+2]` [Mn++, manganese], the Activity came to 4.89 nmol at Pyrophosphorylase [6] and 100% at Pyrophosphorylase [6] (Mn++ = 100). For the same compound, the effectiveness as cation result in experiment [7] was “then Mn^++”.
The compound `CCN1C(=O)C=CC1=O` [N-ethylmaleimide] came in with an inhibition at 10 µM at Pyrophosphorylase [2] (0.01 mM) of 3%. In addition, at Pyrophosphorylase [2], at 100 µM the inhibition was 46% and testing at 1000 µM gave an inhibition of 72%.
On to `c1cnc2c(c1)ccc1cccnc12` [O-Phenanthroline, 1, 10-phenanthroline], for which, on Pyrophosphorylase [2] (read-out: Inhibition), the inhibition at 100 µM came to 5% and the inhibition at 1000 µM was 16%. On Pyrophosphorylase [2] (setting [10]), the “inhibition (in words)” value is given as “did not inhibit”.
Consider `O=C(O)[C@H]1O[C@H](OP(=O)(O)OP(=O)(O)OC[C@H]2O[C@@H](n3ccc(=O)[nH]c3=O)[C@H](O)[C@@H]2O)[C@H](O)[C@@H](O)[C@H]1O` [UDP-GalCOOH], for which, at Pyrophosphorylase [3], the Activity stood at 1.3 nmol/min and the “Relative Activity” value came to 7%.
As to `O=C(O)[C@H]1O[C@H](OP(=O)(O)OP(=O)(O)OC[C@H]2O[C@@H](n3ccc(=O)[nH]c3=O)[C@H](O)[C@@H]2O)[C@H](O)[C@@H](O)[C@@H]1O` [UDP-GlcCOOH, UDP-glucuronic acid], on Pyrophosphorylase [3], the Activity turned out to be 1.4 nmol/min and the “Relative Activity” value amounted to 7%. Also, the inhibition of labeling result in experiment [1] (even at 1 mM) was “None of these sugar nucleotides showed any inhibition of the labeling”.
For the compound `CC(=O)NC1C(OP(=O)(O)OP(=O)(O)OCC2OC(n3ccc(=O)[nH]c3=O)C(O)C2O)OC(CO)C(O)C1O` (stereo not shown) [UDP-GlcNAc, UDP-N-acetylglucosamine], in experiment [8] (setting [12]), the Km turned out to be 50 µM and the maximum rate (Vmax) stood at 22.2 nmol/min. Also, at Pyrophosphorylase [3], the Activity is 13.0 nmol/min and the “Relative Activity” value is reported as 66%. Besides, the inhibition of labeling entry in experiment [1] (unlabeled UDP-GlcNAc 0.01 mM to 1 mM) is listed as “labeling was efficiently blocked; also recorded: effectively inhibited the labeling of both subunits to about the same extent; also recorded: labeling is blocked”. Besides, in experiment [9], the “amount in UDP-GlcNAc area” value is 7.9 µmol and the “radioactivity in UDP-GlcNAc area, share of total” value amounted to 79%. In addition, in the experiment on sheep brain enzyme, the “activity as substrate (in words)” value is “most active”.
Turning to `O=c1ccn([C@@H]2O[C@H](COP(=O)(O)OP(=O)(O)O[C@H]3OC[C@@H](O)[C@H](O)[C@H]3O)[C@@H](O)[C@H]2O)c(=O)[nH]1` [UDP-xylose], the inhibition of labeling result in [1] (even at 1 mM) is reported as “None of these sugar nucleotides showed any inhibition of the labeling”.
In the case of `O=c1ccn([C@@H]2O[C@H](COP(=O)(O)OP(=O)(O)O)[C@@H](O)[C@H]2O)c(=O)[nH]1` [UDP], the inhibition of labeling entry in [1] (nucleotides) was “very little inhibition of labeling”.
Take `O=c1ccn([C@@H]2O[C@H](COP(=O)(O)O)[C@@H](O)[C@H]2O)c(=O)[nH]1` [UMP]: in [1] (nucleotides), the inhibition of labeling entry was “a small effect”.
With `O=c1ccn([C@@H]2O[C@H](COP(=O)(O)OP(=O)(O)OP(=O)(O)O)[C@@H](O)[C@H]2O)c(=O)[nH]1` [UTP], the Vmax in experiment [5] (UTP as substrate, at 10 mM GlcNAc-1-P) came out at 4.8 nmol/min. Further, the Km in experiment [5] (UTP as substrate, at 10 mM GlcNAc-1-P, read-out: Km) was found to be 2500 µM. Besides, the inhibition of labeling entry in experiment [1] (nucleotides) is recorded as “very little inhibition of labeling”.
Turning to `O=P(O)(O)O` [inorganic phosphate], on Pyrophosphorylase [2] (even at 10 mM), the “inhibition (in words)” value was “nor did inorganic phosphate”.
With `O=P(O)(O)OP(=O)(O)O` [inorganic pyrophosphate], in experiment [8] (at 1 mM UDP-GlcNAc), the Michaelis constant (Km) amounted to 70 µM and the Vmax is given as 20 nmol/min.
